Reference: ChEMBL document CHEMBL5579882, “Synthesis and Photodynamic Activities of Pyridine- or Pyridinium-Substituted Aza-BODIPY Photosensitizers” (J Med Chem, 2024)
Each block holds one compound with its values, some of them ahead of it. Activity calls are given as the source filed them. The rule behind the calls is not given here.

Key:
[1] = Dark cytotoxicity against human HepG2 cells assessed as inhibition of cell viability incubated for 3 hrs by CCK8 assay; type: toxicity, cell-based
[2] = Dark cytotoxicity against human HeLa cells assessed as inhibition of cell viability incubated for 3 hrs by CCK8 assay; type: toxicity, cell-based
HepG2 = assay: Phototoxicity against human HepG2 cells assessed as inhibition of cell viability preincubated for 3 hrs followed by photo-irradiation of 54 J/cm2 for 24 hrs by CCK8 assay; type: functional, cell-based; details: HepG2, light or radiation study
HeLa [3] = assay: Phototoxicity against human HeLa cells assessed as inhibition of cell viability preincubated for 3 hrs followed by photo-irradiation of 54 J/cm2 for 24 hrs by CCK8 assay; type: functional, cell-based; details: light or radiation study
[4] = Toxicity in nude BALB/c nu/nu mouse bearing human HeLa cells assessed as pathological change in liver at 2.5 umol/kg, iv with light irradiation of 30 J/cm2 for 1 hr measured for 24 hrs by H and E staining based analysis; type: organism-based; details: in vivo, 25 h, dose 2.5 µmol/kg
[5] = Toxicity in nude BALB/c nu/nu mouse bearing human HeLa cells assessed as drug tolerance at 2.5 umol/kg, iv with light irradiation of 30 J/cm2 for 1 hr measured for 24 hrs; type: organism-based; details: in vivo, 25 h, dose 2.5 µmol/kg
[6] = Biodistribution in liver of nude BALB/c nu/nu mouse bearing human HeLa cells at 2.5 umol/kg, iv measured for 3 hrs by IVIS analysis; type: ADME, organism-based; details: in vivo, dose 2.5 µmol/kg
HeLa [7] = assay: Antitumor activity against human HeLa cells xenografted in nude BALB/c nu/nu mouse assessed as pathological damage in tumor at 2.5 umol/kg, iv with light irradiation of 30 J/cm2 for 1 hr measured after 24 hrs by H and E staining based analysis; type: functional, organism-based; details: dose 2.5 µmol/kg, time 25.0 hrs
[8] = Toxicity in nude BALB/c nu/nu mouse bearing human HeLa cells assessed as pathological change in lung at 2.5 umol/kg, iv with light irradiation of 30 J/cm2 for 1 hr measured for 24 hrs by H and E staining based analysis; type: organism-based; details: in vivo, 25 h, dose 2.5 µmol/kg
HeLa [9] = assay: Induction of lipid peroxidation in human HeLa cells assessed as increase in green fluorescence with a light dose of 54 J/cm2 at 100 to 400 nM incubated for 3 hrs by BODIPY 581/591 C11 dye based analysis; type: functional, cell-based; details: dose 100-400 nM
HeLa [10] = assay: Induction of ROS generation in human HeLa cells without light irradiation at 200 nM incubated for 3 hrs by H2DCFDA staining based analysis; type: functional, cell-based
HeLa [11] = assay: Biodistribution in human HeLa cells xenografted in nude BALB/c nu/nu mouse at 2.5 umol/kg, iv measured for 3 hrs by IVIS analysis; type: ADME, organism-based; details: in vivo, dose 2.5 µmol/kg
[12] = Drug uptake in endoplasmic reticulum of human HeLa cells at 5 uM incubated for 3 hrs by ER-Tracker Green dye based analysis; type: ADME, subcellular
[13] = Biodistribution in kidney of nude BALB/c nu/nu mouse bearing human HeLa cells at 2.5 umol/kg, iv measured for 3 hrs by IVIS analysis; type: ADME, organism-based; details: in vivo, dose 2.5 µmol/kg
[14] = Toxicity in nude BALB/c nu/nu mouse bearing human HeLa cells assessed as pathological change in heart at 2.5 umol/kg, iv with light irradiation of 30 J/cm2 for 1 hr measured for 24 hrs by H and E staining based analysis; type: organism-based; details: in vivo, 25 h, dose 2.5 µmol/kg
HeLa [15] = assay: Induction of cell death in human HeLa cells assessed as increase in bright red signal at 400 nM incubated for 3 hrs followed by light irradiation of 54 J/cm2 in presence of DFO inhibitor by Calcein-AM/PI staining based analysis; type: functional
[16] = Drug uptake in human HeLa cells assessed as fold increase in fluorescence intensity at 5 uM incubated for 3 hrs by fluorescence imaging based analysis relative to control; type: ADME, cell-based
[17] = Toxicity in nude BALB/c nu/nu mouse bearing human HeLa cells assessed as pathological change in spleen at 2.5 umol/kg, iv with light irradiation of 30 J/cm2 for 1 hr measured for 24 hrs by H and E staining based analysis; type: organism-based; details: in vivo, 25 h, dose 2.5 µmol/kg
[18] = Drug uptake in lipid droplet of human HeLa cells at 5 uM incubated for 3 hrs by BODIPY 493/503 dye based analysis; type: ADME, subcellular
[19] = Toxicity in nude BALB/c nu/nu mouse bearing human HeLa cells assessed as steady body weight increment at 2.5 umol/kg, iv with light irradiation at 30 J/cm2 for 1 hr measured for 24 hrs; type: organism-based; details: in vivo, 25 h, dose 2.5 µmol/kg
[20] = Drug uptake in lysosome of human HeLa cells at 5 uM incubated for 3 hrs by LysoTracker Green DND-26 dye based analysis; type: ADME, subcellular
HeLa [21] = assay: Antitumor activity against human HeLa cells xenografted in nude BALB/c nu/nu mouse assessed as decrease in tumor growth at 2.5 umol/kg, iv with light irradiation of 30 J/cm2 for 1 hr measured after 24 hrs; type: functional, organism-based; details: dose 2.5 µmol/kg, time 25.0 hrs
HeLa [22] = assay: Induction of cell death in human HeLa cells assessed as increase in bright red signal at 400 nM incubated for 3 hrs followed by light irradiation of 54 J/cm2 by Calcein-AM/PI staining based analysis; type: functional
HeLa [23] = assay: Induction of cell death in human HeLa cells under dark condition upto 400 nM incubated for 3 hrs by Calcein-AM/PI staining based analysis; type: functional
[24] = Toxicity in nude BALB/c nu/nu mouse bearing human HeLa cells assessed as pathological change in kidney at 2.5 umol/kg, iv with light irradiation of 30 J/cm2 for 1 hr measured for 24 hrs by H and E staining based analysis; type: organism-based; details: in vivo, 25 h, dose 2.5 µmol/kg
[25] = Drug uptake in mitochondria of human HeLa cells at 5 uM incubated for 3 hrs by MitoTracker Green FM dye based analysis; type: ADME
[26] = Biodistribution in skin of nude BALB/c nu/nu mouse bearing human HeLa cells at 2.5 umol/kg, iv measured for 3 hrs by IVIS analysis; type: ADME, organism-based, Skin of body; details: in vivo, dose 2.5 µmol/kg
HeLa [27] = assay: Induction of cell death in human HeLa cells assessed as increase in bright red signal at 400 nM incubated for 3 hrs followed by light irradiation of 54 J/cm2 in presence of Fer-1 inhibitor by Calcein-AM/PI staining based analysis; type: functional
[28] = Biodistribution in lung of nude BALB/c nu/nu mouse bearing human HeLa cells at 2.5 umol/kg, iv measured for 3 hrs by IVIS analysis; type: ADME, organism-based; details: in vivo, dose 2.5 µmol/kg
HeLa [29] = assay: Induction of ROS generation in human HeLa cells assessed as increase in green fluorescence incubated for 3 hrs followed by light irradiation of 54 J/cm2 by H2DCFDA staining based analysis; type: functional, cell-based; details: dose 25-200 nM
[30] = Biodistribution in spleen of nude BALB/c nu/nu mouse bearing human HeLa cells at 2.5 umol/kg, iv measured for 3 hrs by IVIS analysis; type: ADME, organism-based; details: in vivo, dose 2.5 µmol/kg
HeLa [31] = assay: Induction of cell death in human HeLa cells assessed as increase in bright red signal at 400 nM incubated for 3 hrs followed by light irradiation of 54 J/cm2 in presence of Lip-1 inhibitor by Calcein-AM/PI staining based analysis; type: functional
[32] = Drug uptake in human HeLa cells assessed as increase in red fluorescence signal at 5 uM incubated for 3 hrs by fluorescence imaging based analysis; type: ADME, cell-based

Compound: COc1ccc(-c2c(I)c(-c3ccccn3)c3n2[B-](F)(F)[N+]2=C4C(=C(c5ccccc5)C2=N3)CCc2cc(OC)ccc24)cc1
- IC50 at 3 h [1]: > 50000 nM
- IC50 at 3 h [2]: 17900 nM
- IC50 (HepG2): 7.2 nM
- IC50 (HeLa [3]): 12.1 nM

Compound: COc1ccc(C2=[N+]3C(=Nc4c(-c5ccncc5)c(I)c(-c5ccc(OC)cc5)n4[B-]3(F)F)C(c3ccccc3)=C2)cc1
- IC50 at 3 h [2]: 20600 nM
- IC50 (HeLa [3]): 50.1 nM

Compound: COc1ccc(C2=[N+]3C(=Nc4c(-c5ccncc5)c5c(n4[B-]3(F)F)-c3ccc(OC)cc3CC5)C(c3ccccc3)=C2I)cc1
- IC50 at 3 h [1]: > 50000 nM
- IC50 at 3 h [2]: 37200 nM
- IC50 (HepG2): 35.8 nM
- IC50 (HeLa [3]): 33.9 nM

Compound: COc1ccc(-c2c(I)c(-c3cccc[n+]3C)c3n2[B-](F)(F)[N+]2=C4C(=C(c5ccccc5)C2=N3)CCc2cc(OC)ccc24)cc1
- IC50 at 3 h [2]: 6100 nM
- IC50 (HeLa [3]): 118 nM

- Drug uptake [6]: Active
- Drug uptake (HeLa [11]): Active
- Drug uptake [12]: Not Active
- Drug uptake [13]: Active
- fold change (FC) [16]: 6
- Drug uptake [18]: Active
- Drug uptake [20]: Not Active
- Drug uptake [25]: Not Active
- Drug uptake [26]: Not Active
- Drug uptake [28]: Active
- Drug uptake [30]: Active
Compound: COc1ccc(-c2c(I)c(-c3cccnc3)c3n2[B-](F)(F)[N+]2=C4C(=C(c5ccccc5)C2=N3)CCc2cc(OC)ccc24)cc1
- IC50 at 3 h [1]: > 50000 nM
- Activity [4]: Non-Toxic
- Activity [5]: Non-Toxic
- Activity (HeLa [7]): Active
- IC50 at 3 h [2]: > 50000 nM
- Activity [8]: Non-Toxic
- Activity (HeLa [9]): Active
- Activity (HeLa [10]): inactive
- IC50 (HepG2): 6.9 nM
- IC50 (HeLa [3]): 10.4 nM
- Activity [14]: Non-Toxic
- Activity (HeLa [15]): Active
- Activity [17]: Non-Toxic
- Activity [19]: Non-Toxic
- Activity (HeLa [21]): Active
- Activity (HeLa [22]): Active
- Activity (HeLa [23]): inactive
- Activity [24]: Non-Toxic
- Activity (HeLa [27]): inactive
- Activity (HeLa [29]): Dose-Dependent Effect
- Activity (HeLa [31]): inactive

Compound: COc1ccc(-c2c(I)c(-c3cc[n+](C)cc3)c3n2[B-](F)(F)[N+]2=C4C(=C(c5ccccc5)C2=N3)CCc2cc(OC)ccc24)cc1
- IC50 at 3 h [2]: 3300 nM
- IC50 (HeLa [3]): 129 nM

Compound: C=Cc1c(C)c2cc3nc(c(CC(=O)O)c4[nH]c(cc5nc(cc1[nH]2)C(C)=C5CC)c(C)c4C(=O)O)[C@@H](CCC(=O)O)[C@@H]3C [CHLORIN E6]
- IC50 at 3 h [1]: > 50000 nM
- IC50 at 3 h [2]: > 50000 nM
- Activity (HeLa [21]): inactive

Compound: COc1ccc(C2=[N+]3C(=Nc4c(-c5cccnc5)c5c(n4[B-]3(F)F)-c3ccc(OC)cc3CC5)C(c3ccccc3)=C2I)cc1
- IC50 at 3 h [1]: > 50000 nM
- IC50 at 3 h [2]: 37400 nM
- IC50 (HepG2): 7.5 nM
- IC50 (HeLa [3]): 19.1 nM

Compound: COc1ccc(C2=[N+]3C(=Nc4c(-c5cccnc5)c(I)c(-c5ccc(OC)cc5)n4[B-]3(F)F)C(c3ccccc3)=C2)cc1
- IC50 at 3 h [2]: 17100 nM
- IC50 (HeLa [3]): 42.9 nM

Compound: COc1ccc(C2=[N+]3C(=Nc4c(-c5ccc[n+](C)c5)c5c(n4[B-]3(F)F)-c3ccc(OC)cc3CC5)C(c3ccccc3)=C2I)cc1
- IC50 at 3 h [2]: 2300 nM
- IC50 (HeLa [3]): 41.8 nM

Compound: COc1ccc(C2=[N+]3C(=Nc4c(-c5ccccc5)c(Br)c(-c5ccc(OC)cc5)n4[B-]3(F)F)C(c3ccccc3)=C2Br)cc1
- IC50 at 3 h [2]: 41700 nM
- IC50 (HeLa [3]): 64.2 nM

Compound: COc1ccc(-c2c(I)c(-c3ccncc3)c3n2[B-](F)(F)[N+]2=C4C(=C(c5ccccc5)C2=N3)CCc2cc(OC)ccc24)cc1
- IC50 at 3 h [1]: > 50000 nM
- IC50 at 3 h [2]: > 50000 nM
- IC50 (HepG2): 11.1 nM
- IC50 (HeLa [3]): 6.1 nM

- Drug uptake [32]: Active
Compound: COc1ccc(C2=[N+]3C(=Nc4c(-c5ccccc5)c5c(n4[B-]3(F)F)-c3ccc(OC)cc3CC5)C(c3ccccc3)=C2I)cc1
- IC50 at 3 h [1]: > 50000 nM
- IC50 at 3 h [2]: > 50000 nM
- Activity (HeLa [21]): Active

Compound: COc1ccc(-c2c(I)c(-c3ccc[n+](C)c3)c3n2[B-](F)(F)[N+]2=C4C(=C(c5ccccc5)C2=N3)CCc2cc(OC)ccc24)cc1
- IC50 at 3 h [2]: 1200 nM
- IC50 (HeLa [3]): 6 nM

Compound: COc1ccc(C2=[N+]3C(=Nc4c(-c5ccc[n+](C)c5)c(I)c(-c5ccc(OC)cc5)n4[B-]3(F)F)C(c3ccccc3)=C2)cc1
- IC50 at 3 h [2]: 11200 nM
- IC50 (HeLa [3]): 214 nM
